Read-outs that look alike come from different tables or passages of the source.
Legend:
Format in all cases: cell-based
[1] = tested on: pathogenic bacteria and fungi; test: preservative screening test, overall result
Procedure: (§1) A preservative screening study was performed to determine a sufficient amount of preservative to include in selected MEC formulations to provide efficacy against pathogenic bacteria and fungi. The base formulations used in the study were a formulation similar to Composition A from Example 5, but without the spores, and a formulation similar to the Example 14 formulation, but without the spores and 2-phenoxyethanol. Test formulations were prepared by adding different preservatives in different amounts to the base formulations. Each test formulation was tested for efficacy against pathogenic organisms using a preservative screening test. For the screening test, microorganisms are grown separately according to industry standards described in PCPC Test Method M-7 “A Rapid Method for Preservation Testing of Water-Miscible Personal Care Products”, and combined as an inoculum challenge prior to introduction to the formulation test sample. The inoculum is added to each test formulation for predetermined time points, and after appropriate nutrition, the test formulations are evaluated for remaining live count. Reduction of live count is calculated against a control, and a sample showing sufficient percent reduction is accepted as an effectively preserved formulation. Table 4 provides the details of the preservative and amount used in each test formulation and the results of the screen testing.

pathogenic bacteria = test: preservative screening test, bacterial; conditions: reduction of live count
Procedure: as §1

fungi = test: preservative screening test, fungal; conditions: reduction of live count
Procedure: A preservative screening study was performed to determine a sufficient amount of preservative to include in selected MEC formulations to provide efficacy against pathogenic bacteria and fungi. […] Test formulations were prepared by adding different preservatives in different amounts to the base formulations. Each test formulation was tested for efficacy against pathogenic organisms using a preservative screening test. For the screening test, microorganisms are grown separately according to industry standards described in PCPC Test Method M-7 “A Rapid Method for Preservation Testing of Water-Miscible Personal Care Products”, and combined as an inoculum challenge prior to introduction to the formulation test sample. The inoculum is added to each test formulation for predetermined time points, and after appropriate nutrition, the test formulations are evaluated for remaining live count. Reduction of live count is calculated against a control, and a sample showing sufficient percent reduction is accepted as an effectively preserved formulation.

[2] = tested on: beneficial microorganisms; test: compatibility with beneficial microorganisms (description, test not specified); conditions: stated in the description, no test details
Procedure: Incompatibility between a surfactant and a beneficial microorganism has been investigated in various ways, such as a standard Zone of Inhibition test, a standard agar plating test, or a standard resazurin (7-hydroxy-10-oxidophenoxazin-10-ium-3-one, sodium) (a blue fluorogenic dye) compatibility assay. In a Zone of Inhibition test, microorganisms are grown, cultured, diluted down to target levels, and then applied to a Petri dish containing agar nutrients. Test samples containing the surfactant of interest are diluted and loaded into an agar well created within the agar nutrient. The plates are incubated and microorganism growth is allowed to develop. The test sample diffuses through the agar and, if the surfactant in the test sample has an inhibitory effect on the microorganism, a lack of growth halo will be observed around the sample loaded well. This halo is referred to as the zone of inhibition. The larger the zone, the bigger the effect of inhibition. Major suitability limitations for non-antibiotics test samples for this test method are inherent large dilution of active, agar diffusion challenges, and nutrient media incompatibilities (neutralization, precipitation, etc). Although this method has been used in the medical field for antibiotics very successfully for decades, it has low suitability when testing non-antibiotic samples. In a standard agar plating test, test samples containing the surfactant of interest and microorganisms are exposed, diluted several orders of magnitude, and plated onto a nutritive agar that is incubated. After an incubation period appropriate for the species, the microorganism growth pattern is evaluated against appropriate controls. […] The test samples are incubated and then inspected for colorometric and fluorescence change. Test samples that are blue and have low fluorescence indicate no biological activity and incompatibility between the surfactant and the microorganism. Test samples that are pink and have high fluorescence indicate biological activity and compatibility of the surfactant with the microorganism. […]

Bacillus spore blend = test: un-dyed EVOO test for germination and growth; conditions: 0.2 wt % active surfactant, 1×10^7 CFU/g Bacillus spore blend; 5 days shaking; FIG. 11
Procedure: Replicate test compositions were prepared to evaluate the ability of the alkyl sarcosinate and alkyl betaine surfactant blend to overcome the antagonistic incompatibility between each surfactant individually and the bacterial spores. The formulation for testing comprised 20 wt % sodium lauroyl sarcosinate (30% actives), 32 wt % cetyl betaine (30% actives), 3.5 wt % of a commercially available Bacillus spore blend containing 100×10^9 CFU/g Bacillus spores, 4 wt % potassium nitrate, lactic acid (88% active) to adjust the pH to 5.5-6.0, and the remainder water. The test compositions were prepared by diluting the test formulation in water to 0.3% strength, and adding 2 wt % of 3.3 g/L Nutrient Mix (3 g/L Tryptic Soy broth and 0.3 g/L Yeast Extract). Germination and growth of bacterial spores were visually evaluated using an un-dyed EVOO test. […] Growth and biological activity of the microorganism is evident from haze that develops in the test composition, which can be visually detected. […]
The test compositions were visually evaluated for germination and growth of the bacterial spores using the un-dyed EVOO test described above, except that the test compositions were photographed after 5 days of orbital-mixer shaking at setting “5”.

Bacillus spores = tested on: Bacillus spores
[3] = 1.5% active, base formula Example 5, pH 6.5-7.0
[4] = 1.5% active, base formula Example 5, pH 9.0
[5] = 1.5% active, base formula Example 14, pH 9.0
[6] = 1.5% active, base formula Example 14, pH N/A
[7] = 1.0% active, base formula Example 14, pH 5.0
[8] = resazurin assay, FIG. 1, inhibitory if composition with less than 1.0 g/L surfactant remains blue, no fluorescence

OCCOc1ccccc1 [2-phenoxyethanol]
efficacy against pathogenic bacteria and fungi ([1]; 1.5 wt %, even at a pH of 9.0, either base formulation): not sufficient
Bacterial 24 hours (pathogenic bacteria; [3]): <50%
Bacterial 7 days (pathogenic bacteria; [3]): <50%
Bacterial 24 hours (pathogenic bacteria; [4]): 99.4%
Bacterial 7 days (pathogenic bacteria; [4]): >99.6%
Bacterial 24 hours (pathogenic bacteria; [5]): 98.4%
Bacterial 7 days (pathogenic bacteria; [5]): >99.6%
Bacterial 7 days (pathogenic bacteria; [6]): 87.5%
Fungal 24 hours (fungi; [3]): <50%
Fungal 7 days (fungi; [3]): <50%
Fungal 24 hours (fungi; [4]): 29.3%
Fungal 7 days (fungi; [4]): <50%
Fungal 24 hours (fungi; [5]): 75.0%
Fungal 7 days (fungi; [5]): 95.6%
Fungal 7 days (fungi; [6]): <50%

O=C(O)c1ccccc1 [Benzoic Acid]
Result [1, 7]: Pass
Bacterial 24 hours (pathogenic bacteria; [7]): >99.6%
Bacterial 7 days (pathogenic bacteria; [7]): >99.6%
Fungal 24 hours (fungi; [7]): 99.6%
Fungal 7 days (fungi; [7]): 99.6%

C=CCCCCCCCC(=O)N(C)C [STEPOSOL® MET-10U]
compatibility with the beneficial microorganisms [2]: compatible

O.O.O=C([O-])CC(O)(CC(=O)[O-])C(=O)[O-].[Na+].[Na+].[Na+] [sodium citrate dihydrate]
compatibility with the beneficial microorganisms [2]: compatible

O=C([O-])[C@H](O)[C@@H](O)[C@H](O)[C@H](O)CO.[Na+] [sodium gluconate]
compatibility with the beneficial microorganisms [2]: compatible

CCCCCCCCCCCCOS(=O)(=O)[O-].[Na+] [sodium lauryl sulfate]
germination and growth of bacterial spores (Bacillus spore blend): strong inhibition

cocoamidopropyl betaine [CAPB]
compatibility with Bacillus spores (Bacillus spores; [8]): inhibitory

lauramine oxide
germination and growth of bacterial spores (Bacillus spore blend): strong inhibition

lauryl alcohol with 8 moles of ethylene oxide [laureth 8EO]
compatibility with Bacillus spores (Bacillus spores): inhibitory

sodium lauryl ether sulfate 2EO [SLES]
compatibility with Bacillus spores (Bacillus spores; [8]): inhibitory

— patent US20260078335A1, “MICROBIAL ENHANCED COMPOSITIONS COMPRISING SURFACTANT BLENDS WHICH OVERCOME ANTAGONISTIC SURFACTANT INCOMPATIBILITY” (Stepan Company, priority 2023, published 2026)
